Laboratory results published in ChEMBL document CHEMBL1126378, “Substrate selectivity of imidazole-appended dimethyl--cyclodextrin” (Bioorg Med Chem Lett, 1992).

Legend:
[1] = Kinetic parameter Kun for hydrolysis at 25 degrees Celsius using phosphate buffer in reaction with 3-[2-(4-imidazolyl)ethyl] […]
[2] = Kinetic parameter Km for hydrolysis at 25 degrees Celsius using phosphate buffer in reaction with 3-[2-(4-imidazolyl)ethyl] […]
[3] = Kinetic parameter kcat for hydrolysis at 25 degrees Celsius using phosphate buffer in reaction with 3-[2-(4-imidazolyl)ethyl] […]
[4] = Ratio of kcat and Km was determined
[5] = Ratio of kcat and kun was determined

SMILES | Kun [1] [s⁻¹] | Km [2] [µM] | k cat [3] [s⁻¹] | k cat/Km [4] [M⁻¹ s⁻¹] | k cat/Kuncat [5]
CC(=O)NCC(=O)Oc1ccc([N+](=O)[O-])cc1 | 0.000562 | 1470 | 0.0519 | 35.4 | 92
CC(=O)NC(C)C(=O)Oc1ccc([N+](=O)[O-])cc1 (stereo not given) | 0.00144 | 1350 | 0.0371 | 27.5 | 26
CC(C)(C)OC(=O)NCC(=O)Oc1ccc([N+](=O)[O-])cc1 | 0.000129 | 387 | 0.0312 | 80.5 | 242

Further lines, results first:

Kun [1] [s⁻¹] | Km [2] [µM] | k cat [3] [s⁻¹] | k cat/Km [4] [M⁻¹ s⁻¹] | k cat/Kuncat [5] | SMILES
0.000861 | 478 | 0.0238 | 49.7 | 28 | CC(=O)N[C@H](Cc1ccccc1)C(=O)Oc1ccc([N+](=O)[O-])cc1
0.000861 | 148 | 0.011 | 73.9 | 13 | CC(=O)N[C@@H](Cc1ccccc1)C(=O)Oc1ccc([N+](=O)[O-])cc1
